Data from ChEMBL document CHEMBL1649341, “Citrusosides A-D and furanocoumarins with cholinesterase inhibitory activity from the fruit peels of Citrus hystrix” (J Nat Prod, 2010).
Calls of active or inactive are those of the source. The rule behind the calls is not given here.

Key:
Cholinesterase = Cholinesterase (Equus caballus, UniProt P81908); test: Inhibition of horse serum BChE after 2 mins by Ellman's reaction
[1] = biological target: Cholinesterase (Equus caballus) (UniProt P81908); test: Inhibition of horse serum BChE at 7.2 mM after 2 mins by Ellman's reaction
[2] = biological target: Cholinesterase (Equus caballus) (UniProt P81908); test: Inhibition of horse serum BChE at 65.1 uM after 2 mins by Ellman's reaction
[3] = biological target: Cholinesterase (Equus caballus) (UniProt P81908); test: Inhibition of horse serum BChE at 14.8 mM after 2 mins by Ellman's reaction

Cholinesterase (Equus caballus), sequence (P81908 whole entry): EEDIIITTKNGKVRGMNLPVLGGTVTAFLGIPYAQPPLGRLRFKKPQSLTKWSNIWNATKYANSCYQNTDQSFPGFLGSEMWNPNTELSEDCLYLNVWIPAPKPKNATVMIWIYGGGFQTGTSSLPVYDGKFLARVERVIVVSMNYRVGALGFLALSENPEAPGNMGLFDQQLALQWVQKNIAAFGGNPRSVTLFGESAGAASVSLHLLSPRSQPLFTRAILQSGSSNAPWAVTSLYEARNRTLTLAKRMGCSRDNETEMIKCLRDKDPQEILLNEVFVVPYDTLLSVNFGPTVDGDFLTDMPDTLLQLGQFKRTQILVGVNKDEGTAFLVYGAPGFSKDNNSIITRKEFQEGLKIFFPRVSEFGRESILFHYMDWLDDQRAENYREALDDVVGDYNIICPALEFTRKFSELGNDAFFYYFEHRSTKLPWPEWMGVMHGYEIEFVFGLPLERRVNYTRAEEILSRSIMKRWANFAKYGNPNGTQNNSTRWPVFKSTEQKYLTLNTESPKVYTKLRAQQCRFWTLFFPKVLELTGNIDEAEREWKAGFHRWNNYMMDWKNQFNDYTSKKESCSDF
Cholinesterase, sequence (P81908 whole entry): as above

CC(C)=CCOc1c2ccoc2cc2oc(=O)ccc12 [ISOIMPERATORIN]
IC50 (Cholinesterase): 23.1 µM

C/C(=C\COc1c2ccoc2cc2oc(=O)ccc12)CC[C@@H](OC(=O)CC(C)(O)CC(=O)OC[C@H]1O[C@@H](OC(C)C)[C@H](O)[C@@H](O)[C@@H]1O)C(C)(C)O (stereo partly drawn) [CITRUSOSIDE B]
IC50 (Cholinesterase): 339 µM

CC(C)O[C@@H]1O[C@H](CO)[C@@H](O)[C@H](OC(=O)CC(C)(O)CC(=O)O[C@H](COc2c3ccoc3cc3oc(=O)ccc23)C(C)(C)O)[C@H]1O (stereo partly drawn)
inhibition [1]: inactive

CC(C)(O)[C@H](O)COc1c2ccoc2cc2oc(=O)ccc12
inhibition [2]: 24.6%

CC(C)=CCC[C@@H](C)C/C=C/C(=O)OC[C@H]1O[C@@H](OC(C)C)[C@H](O)[C@@H](O)[C@@H]1O [CITRUSOSIDE A]
IC50 (Cholinesterase): 376 µM

COC(C)(C)[C@H](O)CC/C(C)=C/COc1c2ccoc2cc2oc(=O)ccc12
IC50 (Cholinesterase): 11.2 µM

C/C(=C\COc1c2ccoc2cc2oc(=O)ccc12)CC[C@@H](O)C(C)(C)O
IC50 (Cholinesterase): 15.4 µM

CC(C)=CCC/C(C)=C/COc1c2ccoc2cc2oc(=O)ccc12
inhibition [3]: inactive
